In patent publication US12351581B2, “Compounds for FGFR inhibition” (Cogent Biosciences, Inc., priority 2023, dated 2025):
Like-named read-outs stand apart in the source and are kept apart here.

Assays:
[1] = target: T1, FGFR2 (Homo sapiens, UniProt P21802); experiment: FGFR wild type enzyme assay (HTRF KinEASE-TK); format: biochemical; settings: ATP 2 uM
T1 construct: biochemical assays using purified intracellular domains of the respective isoforms; purchased Carna Bioscience 08-134
Protocol: (§1) Activity against FGFR wild type and mutant enzymes were determined in biochemical assays using purified intracellular domains of the respective isoforms using HTRF KinEASE-TK assay technology from CisBio, now PerkinElmer. (Catalogue number 62TK0PEC). Briefly test compounds were tested in 11 point 1:3 serial dilutions, typical final concentration range from 10,000 nM to 0.17 nM. Test compounds were dissolved in DMSO and added to assay plates using acoustic transfer. Enzyme was pre-incubated with test compound for 30 minutes and the assay was initiated by addition of ATP and TK-peptide substrate. After 60 minutes at room temperature the reaction was quenched with detection reagent and incubated for an additional 60 minutes at room temperature. The plates were read using a multimode reader and the emission ratio of 665 nm to 615 nm was determined. This ratio was converted to percent of control (POC). [1-(high control-sample signal)/(high control-low control)]*100. Wells without compound were used to determine high control values and wells without enzyme were used to determine low control values. The POC values were fit using a four-parameter logistic model and the value where the fit curve was equal to 50 POC was reported as the IC50 using the Signals Vitro Vivo software package (PerkinElmer). Final assay conditions were: 50 mM HEPES pH7.5, 10 mM MgCl2, 1 mM EDTA, 0.01% Brij-35, 2 mM MnCl2, 1 mM DTT, and 0.5 uM TK-peptide. The enzyme source, catalogue number, final enzyme concentration, and final ATP concentration can be found in the tables 1-2 below.

[2] = target: FGFR2-WT (Homo sapiens, UniProt P21802); experiment: Phosphorylated FGFR2-WT (pFGFR2-WT) cell assay, KATOIII cells; format: cell-based; settings: 1 hour incubation, phospho FGFR2 HTRF
Protocol: KATOIII cells were grown in the appropriate growth medium, IMDM supplemented with 20% fetal bovine serum. Cells were seeded into a 384-well at 1×10^5 cells/25 μL/well. Cells were treated with compound using three-fold serial dilutions at final concentrations ranging from 10 μM to 0.5 nM. Compound was incubated on cells for 1 hour at 37° C., 5% CO2.
Following the 1-hour incubation with compounds, cell lysates were prepared and phospho FGFR2 was measured using the HTRF Phospho-FGFR2 (TYR653/654) Detection Kits (CisBio, cat #64FGFR2Y6PEG). 8 μL of cell lysis buffer (4×) supplied with 1× Phospho and Total protein blocking reagent (CisBio, cat #64FGFR2Y6PEG, CisBio, cat #64KB1AAC) was then added to the wells. Cells were incubated with lysis buffer for 40 minutes at 4° C. under shaking conditions. Plates were centrifuged at 1500 rpm for 3 min and then 16 μL of cell lysate was transferred from the cell-culture plate to a small volume detection plate with the added premixed antibody solutions (4 μL) (CisBio, cat #64FGFR2Y6PEG). Plates were centrifuged at 1000 rpm for 1 min then incubated at 25° C. for 120 min, then overnight at 4° C. Plates were read on the En Vision multimode plate reader via HTRF dual wavelength detection. One hundred percent of control (POC) was determined using DMSO treated samples, and 0 POC was determined using the top concentration of a control compound. A 4-parameter logistic curve was fit to the POC values as a function of compound concentration to determine the IC50 value.

[3] = target: T2, FGFR2 N549H (Homo sapiens, UniProt P21802, N549H); experiment: FGFR mutant enzyme assay (HTRF KinEASE-TK); format: biochemical; settings: ATP 0.9 uM
T2 construct: biochemical assays using purified intracellular domains of the respective isoforms; purchased Carna Bioscience 08-532
Protocol: as §1

[4] = target: T3, FGFR2 V564F (Homo sapiens, UniProt P21802, V564F); experiment: FGFR mutant enzyme assay (HTRF KinEASE-TK); format: biochemical; settings: ATP 1.5 uM
T3 construct: biochemical assays using purified intracellular domains of the respective isoforms; purchased SignalChem Biotech F05-12FG
Protocol: as §1

[5] = target: T4, FGFR2 V564I (Homo sapiens, UniProt P21802, V564I); experiment: FGFR mutant enzyme assay (HTRF KinEASE-TK); format: biochemical; settings: ATP 0.4 uM
T4 construct: biochemical assays using purified intracellular domains of the respective isoforms; purchased Carna Bioscience 08-546
Protocol: as §1

[6] = compound table after the examples, read-out: Enz FGFR2

T3 sequence (P21802 399-821 V564F limits assumed): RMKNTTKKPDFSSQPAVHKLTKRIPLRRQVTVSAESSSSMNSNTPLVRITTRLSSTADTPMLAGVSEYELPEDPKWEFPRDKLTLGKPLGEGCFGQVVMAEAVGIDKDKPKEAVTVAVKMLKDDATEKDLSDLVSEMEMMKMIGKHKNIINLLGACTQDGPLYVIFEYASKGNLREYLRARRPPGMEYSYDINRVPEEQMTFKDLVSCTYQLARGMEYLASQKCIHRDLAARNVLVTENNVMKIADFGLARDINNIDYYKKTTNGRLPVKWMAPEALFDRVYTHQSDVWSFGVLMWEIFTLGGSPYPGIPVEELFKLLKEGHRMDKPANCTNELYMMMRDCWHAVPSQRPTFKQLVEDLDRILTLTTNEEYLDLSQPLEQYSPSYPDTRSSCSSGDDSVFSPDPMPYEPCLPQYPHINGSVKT
T1 sequence (P21802 399-821 limits assumed): as the sequence (P21802 399-821 V564F limits assumed) above, with F166V counted along it
T4 sequence (P21802 399-821 V564I limits assumed): as the sequence (P21802 399-821 V564F limits assumed) above, with F166I counted along it
FGFR2-WT, sequence (P21802 430-767 limits assumed): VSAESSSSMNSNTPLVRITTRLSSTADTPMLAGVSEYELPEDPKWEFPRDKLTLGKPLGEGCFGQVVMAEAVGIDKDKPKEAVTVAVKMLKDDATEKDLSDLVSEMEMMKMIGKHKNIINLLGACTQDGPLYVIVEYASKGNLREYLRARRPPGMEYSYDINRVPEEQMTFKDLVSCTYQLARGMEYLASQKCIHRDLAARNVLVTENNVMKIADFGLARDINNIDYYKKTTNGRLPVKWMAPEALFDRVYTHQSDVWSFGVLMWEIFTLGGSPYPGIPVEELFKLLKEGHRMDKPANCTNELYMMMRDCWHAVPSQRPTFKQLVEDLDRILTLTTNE
T2 sequence (P21802 399-821 N549H limits assumed): as the sequence (P21802 399-821 V564F limits assumed) above, with N151H, F166V counted along it

| Compound | IC50 ([1]; Table 3, read-out: FGFR2 Enz) [nM] | IC50 [1, 6] [nM] | IC50 [2] [nM] | IC50 [3] [nM] | IC50 [4] [nM] | IC50 [5] [nM] |
| --- | --- | --- | --- | --- | --- | --- |
| Cc1nn(C2CCN(C)CC2)c(C)c1-c1cc(O[C@H](C)c2ccccn2)c2c(C#N)cnn2c1 [Compound 6, (R)-6-(3,5-dimethyl-1-(1-methylpiperidin-4-yl)-1H-pyrazol-4-yl)-4-(1-(pyridin-2-yl)ethoxy)pyrazolo[1,5-a]pyridine-3-carbonitrile] | 1 | 1 | 15 | 2.4 | 4 | 4.3 |
| Cc1c(-c2cc(O[C@H](C)c3ccc(F)cn3)c3c(C#N)cnn3c2)cnn1[C@H]1CCCN(C(=O)[C@@H](C)O)C1 [Compound 48, 4-((R)-1-(5-fluoropyridin-2-yl)ethoxy)-6-(1-((S)-1-((R)-2-hydroxypropanoyl)piperidin-3-yl)-5-methyl-1H-pyrazol-4-yl)pyrazolo[1,5-a]pyridine-3-carbonitrile] | 0.4 | 0.4 | 3 | 0.4 | 1 | 1 |
| C[C@@H]1CN(c2ccc(-c3cc(O[C@H](C)c4ccc(F)cn4)c4c(C#N)cnn4c3)cn2)C[C@H](C)O1 [Compound 16, 6-(6-((2S,6R)-2,6-dimethylmorpholino)pyridin-3-yl)-4-((R)-1-(5-fluoropyridin-2-yl)ethoxy)pyrazolo[1,5-a]pyridine-3-carbonitrile] | 0.5 | 0.5 | 8 | 0.3 | 0.8 | 1 |
| C[C@@H](Oc1cc(-c2ccc(N3CC[C@@H](O)[C@@H](O)C3)nc2)cn2ncc(C#N)c12)c1ccc(F)cn1 [Compound 25, 6-(6-((3S,4R)-3,4-dihydroxypiperidin-1-yl)pyridin-3-yl)-4-((R)-1-(5-fluoropyridin-2-yl)ethoxy)pyrazolo[1,5-a]pyridine-3-carbonitrile] | 0.3 | 0.3 | 3 | 0.25 | 0.7 | 1 |
| Cc1c(-c2cc(O[C@H](C)c3ccc(F)cn3)c3c(C#N)cnn3c2)cnn1[C@H]1CCCN(C(=O)C(C)(C)O)C1 [Compound 17, 4-((R)-1-(5-fluoropyridin-2-yl)ethoxy)-6-(1-((S)-1-(2-hydroxy-2-methylpropanoyl)piperidin-3-yl)-5-methyl-1H-pyrazol-4-yl)pyrazolo[1,5-a]pyridine-3-carbonitrile] | 0.6 | 0.6 | 3.4 | 0.5 | 1 | 1.7 |
| CC(=O)N1CCC[C@H](n2ncc(-c3cc(O[C@H](C)c4ccc(F)cn4)c4c(C#N)cnn4c3)c2C)C1 [Compound 13, 6-(1-((S)-1-acetylpiperidin-3-yl)-5-methyl-1H-pyrazol-4-yl)-4-((R)-1-(5-fluoropyridin-2-yl)ethoxy)pyrazolo[1,5-a]pyridine-3-carbonitrile] | 0.5 | 0.6 | 3.8 | 0.6 | 1.6 | 2 |
| Cc1c(-c2cc(OC(C)c3ccc(F)cn3)c3c(C#N)cnn3c2)cnn1[C@H]1CC[C@H](O)CC1 (stereo partly drawn) [Compound 51, 4-(1-(5-fluoropyridin-2-yl)ethoxy)-6-(1-((1r,4r)-4-hydroxycyclohexyl)-5-methyl-1H-pyrazol-4-yl)pyrazolo[1,5-a]pyridine-3-carbonitrile] | 1 | 1 | 6.5 | 1 | 2 | 4 |
| C[C@@H](Oc1cc(-c2cnn(C)c2N)cn2ncc(C#N)c12)c1ccccn1 [Compound 35, (R)-6-(5-amino-1-methyl-1H-pyrazol-4-yl)-4-(1-(pyridin-2-yl)ethoxy)pyrazolo[1,5-a]pyridine-3-carbonitrile] | 1 | 1 | 5 | 1 | 2 | 2.7 |
| Cc1c(-c2cc(O[C@H](C)c3ccc(F)cn3)c3c(C#N)cnn3c2)cnn1[C@@H]1CCCC[C@H]1O [Compound 62, 4-((R)-1-(5-fluoropyridin-2-yl)ethoxy)-6-(1-((1R,2R)-2-hydroxycyclohexyl)-5-methyl-1H-pyrazol-4-yl)pyrazolo[1,5-a]pyridine-3-carbonitrile] | 7 | 8 | 48 | 9 | 21.5 | 30 |
| Cc1c(-c2cc(O[C@H](C)c3ccc(F)cn3)c3c(C#N)cnn3c2)cnn1[C@@H]1CCCN(C(=O)[C@H](C)O)C1 [Compound 49, 4-((R)-1-(5-fluoropyridin-2-yl)ethoxy)-6-(1-((R)-1-((S)-2-hydroxypropanoyl)piperidin-3-yl)-5-methyl-1H-pyrazol-4-yl)pyrazolo[1,5-a]pyridine-3-carbonitrile] | 2.6 | 2.6 | 15 | 3 | 8 | 10 |
| Cc1c(-c2cc(O[C@H](C)c3ccccn3)c3c(C#N)cnn3c2)cnn1C1CCN(C)CC1 [Compound 7, (R)-6-(5-methyl-1-(1-methylpiperidin-4-yl)-1H-pyrazol-4-yl)-4-(1-(pyridin-2-yl)ethoxy)pyrazolo[1,5-a]pyridine-3-carbonitrile] | 0.3 | 0.3 | 6 | 0.5 | 1 | 1 |
| Cc1c(-c2cc(O[C@H](C)c3ccc(F)cn3)c3c(C#N)cnn3c2)cnn1[C@H]1CCCNC1 [Compound 12, 4-((R)-1-(5-fluoropyridin-2-yl)ethoxy)-6-(5-methyl-1-((S)-piperidin-3-yl)-1H-pyrazol-4-yl)pyrazolo[1,5-a]pyridine-3-carbonitrile] | 0.45 | 0.5 | 4.7 | 0.7 | 1.3 | 1.8 |
| C[C@@H](Oc1cc(-c2ccc(N3CCN(C)[C@@H](CO)C3)nc2)cn2ncc(C#N)c12)c1ccc(F)cn1 [Compound 24, 4-((R)-1-(5-fluoropyridin-2-yl)ethoxy)-6-(6-((R)-3-(hydroxymethyl)-4-methylpiperazin-1-yl)pyridin-3-yl)pyrazolo[1,5-a]pyridine-3-carbonitrile] | 0.3 | 0.3 | 3 | 0.3 | 1 | 1 |
| Cc1c(-c2cc(O[C@H](C)c3ccc(F)cn3)c3c(C#N)cnn3c2)cnn1[C@H]1CC[C@H](OC(=O)[C@@H](N)C(C)C)CC1 [Compound 53, (1R,4S)-4-(4-(3-cyano-4-((R)-1-(5-fluoropyridin-2-yl)ethoxy)pyrazolo[1,5-a]pyridin-6-yl)-5-methyl-1H-pyrazol-1-yl)cyclohexyl L-valinate] | 0.3 | 0.3 | 3 | 0.5 | 1 | 1.5 |
| Cc1c(-c2cc(O[C@H](C)c3ccc(F)cn3)c3c(C#N)cnn3c2)cnn1[C@H]1CC[C@@](C)(O)CC1 [Compound 23, 4-((R)-1-(5-fluoropyridin-2-yl)ethoxy)-6-(1-((1s,4S)-4-hydroxy-4-methylcyclohexyl)-5-methyl-1H-pyrazol-4-yl)pyrazolo[1,5-a]pyridine-3-carbonitrile] | 0.4 | 0.4 | 4 | 0.6 | 1 | 2 |
